In one test the target is Steroidogenic factor 1 (Homo sapiens, UniProt Q13285). In words: blockers of SF-1 LBD reporter transcription – cell-based, CHO-K1, Gal4-SF-1 LBD, luciferase luminescence, dose response (AID 600).
Steroidogenic factor 1, sequence (Q13285 whole entry, the tested form may be a part): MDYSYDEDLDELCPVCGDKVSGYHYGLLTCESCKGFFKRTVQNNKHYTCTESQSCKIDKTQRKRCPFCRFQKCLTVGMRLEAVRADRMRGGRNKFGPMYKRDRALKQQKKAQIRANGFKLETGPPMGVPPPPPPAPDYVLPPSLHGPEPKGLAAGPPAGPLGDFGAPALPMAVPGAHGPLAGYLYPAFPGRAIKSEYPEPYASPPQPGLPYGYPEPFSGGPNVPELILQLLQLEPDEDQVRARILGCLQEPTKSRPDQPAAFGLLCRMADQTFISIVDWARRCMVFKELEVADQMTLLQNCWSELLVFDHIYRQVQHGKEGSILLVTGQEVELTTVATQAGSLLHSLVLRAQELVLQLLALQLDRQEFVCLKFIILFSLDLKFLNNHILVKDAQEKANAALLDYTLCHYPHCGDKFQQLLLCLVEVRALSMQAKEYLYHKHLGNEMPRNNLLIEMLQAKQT
Conditions: not given
The IC50 is the midpoint of a concentration-inhibition curve. High values mean a need for much substance, low ones inhibition by little substance. `COC(=O)c1ccc(-n2c(O)cc(N3CCC(n4c(=O)[nH]c5ccccc54)CC3)c2O)cc1` [4-[2,5-dioxo-3-[4-(2-oxo-3H-benzimidazol-1-yl)-1-piperidinyl]-1-pyrrolidinyl]benzoic acid methyl ester]: the IC50 was > 99 µM.

For `CSCc1nnc(NC(=O)c2ccc(S(=O)(=O)N(CC(C)C)CC(C)C)cc2)o1` [4-(diisobutylsulfamoyl)-N-[5-[(methylthio)methyl]-1,3,4-oxadiazol-2-yl]benzamide], the IC50 is > 11 µM. Turning to `N#Cc1c(NC(=O)CSc2nc[nH]n2)sc2c1CCCCC2` [N-(3-cyano-5,6,7,8-tetrahydro-4H-cyclohepta[b]thien-2-yl)-2-(1H-1,2,4-triazol-3-ylthio)acetamide], 0.098 µM corresponded to half-maximal inhibition (IC50). With `COc1cccc2c1C(=O)c1c(O)c3c(c(O)c1C2=O)C[C@@](O)(C(=O)CO)C[C@@H]3O[C@H]1C[C@H](N)[C@H](O)[C@H](C)O1` [MLS000028393], half-maximal inhibition (IC50) was put at 0.964 µM.

Still in this test, the particulars now being: inactive by the depositor's call.
Consider `CN1Cc2cc(C(=O)c3cc(Cl)cc(CSc4ncccn4)c3O)cnc2NC1=O` [6-[5-chloranyl-2-oxidanyl-3-(pyrimidin-2-ylsulfanylmethyl)phenyl]carbonyl-3-methyl-1,4-dihydropyrido[2,3-d]pyrimidin-2-one], for which the IC50 amounted to 12.6 µM. Same read-out and setting: for `CCCCOc1ccc(OC(=O)c2cccnc2)cc1` [(4-butoxyphenyl) pyridine-3-carboxylate] the value was 15.4 µM; for `c1csc(CCNc2ncnc3sc4c(c23)CCC4)c1` [7,8-dihydro-6H-cyclopenta[4,5]thieno[1,2-c]pyrimidin-1-yl-[2-(2-thienyl)ethyl]amine], 11.1 µM.

The values are drawn from BindingDB's records for doi:10.7270/Q2319T8T (The Scripps Research Institute Molecular Screening Center, 2007).
